Measurements taken from article PMC8855934 (Journal of medicinal chemistry, 2021).
Positions count from the first letter of the chain named.

What was measured:
VCaP cell line = experiment: Cell growth inhibition in the VCaP cell line; assay type: cell-based, human
[1] = tested on: AR protein (22Rvl cell line with F876L mutation); experiment: AR degradation in 22Rv1 cell line; assay type: cell-based, human; details: 22Rv1, 24 h
AR T878A mutant protein = biological target: T1, AR T878A mutant protein (Homo sapiens, UniProt P10275, T878A)
T1 sequence (P10275 1-920 T878A): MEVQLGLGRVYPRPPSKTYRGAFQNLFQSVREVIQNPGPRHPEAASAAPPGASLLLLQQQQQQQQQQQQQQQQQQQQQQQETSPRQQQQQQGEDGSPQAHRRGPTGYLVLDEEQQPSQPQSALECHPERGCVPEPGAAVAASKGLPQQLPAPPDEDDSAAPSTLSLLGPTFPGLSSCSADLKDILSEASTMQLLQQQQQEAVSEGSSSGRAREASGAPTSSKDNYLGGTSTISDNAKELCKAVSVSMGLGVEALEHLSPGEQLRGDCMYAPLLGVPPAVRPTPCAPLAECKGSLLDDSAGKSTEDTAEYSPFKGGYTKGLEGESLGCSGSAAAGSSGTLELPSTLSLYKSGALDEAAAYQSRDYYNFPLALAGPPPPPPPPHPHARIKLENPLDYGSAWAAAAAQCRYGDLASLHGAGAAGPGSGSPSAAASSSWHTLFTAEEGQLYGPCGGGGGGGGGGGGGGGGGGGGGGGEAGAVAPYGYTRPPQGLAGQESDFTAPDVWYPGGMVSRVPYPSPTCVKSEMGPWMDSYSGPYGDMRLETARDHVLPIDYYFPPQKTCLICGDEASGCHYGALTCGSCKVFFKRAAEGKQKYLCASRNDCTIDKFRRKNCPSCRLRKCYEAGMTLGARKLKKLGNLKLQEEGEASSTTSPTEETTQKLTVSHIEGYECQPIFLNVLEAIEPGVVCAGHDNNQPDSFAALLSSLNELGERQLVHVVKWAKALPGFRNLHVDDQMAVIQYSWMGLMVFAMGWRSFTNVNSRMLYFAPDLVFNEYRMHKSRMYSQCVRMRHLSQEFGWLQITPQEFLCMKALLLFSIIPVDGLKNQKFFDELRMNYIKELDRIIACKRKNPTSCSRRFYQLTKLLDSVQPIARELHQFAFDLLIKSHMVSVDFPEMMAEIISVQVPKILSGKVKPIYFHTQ

[2] = Tissue distribution studies of ARD-2585 in mice bearing VCaP tumors; assay type: in vivo; details: male, SCID, mouse, po, 20 mg/kg
AR protein [3] = biological target: T2, AR protein (Homo sapiens, UniProt P10275); experiment: AR degradation in VCaP cell line; assay type: cell-based
T2 sequence (P10275 1-920): T1 sequence (P10275 1-920 T878A) with A878T

AR protein [4] = biological target: T2, AR protein; details: single oral administration 20 mg/kg, 6 and 24 h time-points, Western blotting
[5] = biological target: T3, AR double mutations (L702H and T878A) (Homo sapiens, UniProt P10275, L702H/T878A); details: MDA-PCa-2b, 24 h, Figure 7
T3 sequence (P10275 1-920 L702H/T878A): T1 sequence (P10275 1-920 T878A) with L702H

Pharmacokinetics in mice = assay type: in vivo; details: male, mouse, in vivo

Row | SMILES | times less potent than compounds 35 and 36 (cell growth inhibition) (VCaP cell line) | Dmax, AR degradation in 22Rv1 cell line [1] | Dmax, AR degradation in LNCaP cell line (AR T878A mutant protein; LNCaP cell line (AR T878A), Western blotting, listed as ARD-2585) | reduction of AR protein (mechanism study) (AR T878A mutant protein; LNCaP cells, 100 nM, 3 h treatment) | reduction of AR protein level (degradation kinetics) (AR T878A mutant protein; LNCaP, 1 h) | concentration at 6 h ([2]; plasma) | concentration at 24 h ([2]; plasma) | concentration at 24 h ([2]; prostate) | Dmax, AR degradation in VCaP cell line (AR protein [3]; VCaP cell line, 24 h treatment, Western blotting, listed as ARD-2585) | reduction of AR protein (mechanism study) (AR protein [3]; VCaP cells, 100 nM, 3 h treatment) | reduction of AR protein level (degradation kinetics) (AR protein [3]; VCaP, 1 h) | reduction of AR protein level in VCaP tumor tissue (AR protein [4]) | concentration as low as which AR protein level is reduced by >80% [5] | Vd (Pharmacokinetics in mice; iv, 2 mg/kg) | clearance (Pharmacokinetics in mice; iv, 2 mg/kg) | half-life (Pharmacokinetics in mice; iv, 2 mg/kg) | AUC(0-t) (Pharmacokinetics in mice; po, 3 mg/kg)
1 | N#Cc1ccc(N[C@H]2CC[C@H](NC(=O)c3ccc(N4CCC(N5CCN(c6ccc7c(c6)C(=O)N(C6CCC(=O)NC6=O)C7=O)CC5)CC4)cc3)CC2)cc1Cl (stereo partly drawn) [Compound 34, N-(1R,4R)-4-(((3-Chloro-4-cyanophenyl)amino)cyclohexyl)-4-(4-(4-(2-(2,6-dioxopiperidin-3-yl)-1,3-dioxoisoindolin-5-yl)piperazin-1-yl)piperidin-1-yl)benzamide] | ~10 | – | – | – | – | – | – | – | – | – | – | – | – | – | – | – | –
2 | CCCN(c1ccc(C#N)c(Cl)c1)[C@H]1CC[C@H](NC(=O)c2ccc(N3CCC(N4CCN(c5ccc6c(c5)C(=O)N(C5CCC(=O)NC5=O)C6=O)CC4)CC3)cc2)CC1 (stereo partly drawn) [Compound 37, N-(1R,4R)-4-(((3-Chloro-4-cyanophenyl)(propyl)amino)-cyclohexyl)-4-(4-(4-(2-(2,6-dioxopiperidin-3-yl)-1,3-dioxoisoindolin-5-yl)piperazin-1-yl)piperidin-1-yl)benzamide] | > 40 | – | – | – | – | – | – | – | – | – | – | – | – | – | – | – | –
3 | CN(c1ccc(C#N)c(Cl)c1)[C@H]1CC[C@H](NC(=O)c2ccc(N3CCN(C4CN(c5ccc6c(c5)C(=O)N(C5CCC(=O)NC5=O)C6=O)C4)CC3)cc2)CC1 (stereo partly drawn) [Compound 43, N-(1R,4R)-4-(((3-Chloro-4-cyanophenyl)(methyl)amino)-cyclohexyl)-4-(4-(1-(2-(2,6-dioxopiperidin-3-yl)-1,3-dioxoisoindolin-5-yl)azetidin-3-yl)piperazin-1-yl)benzamide] | – | > 95% | > 98% | effectively reduces | effectively reduce | 134 ± 98 ng/mL | 214 ± 78 ng/mL | 109 ± 23 ng/g | > 98% | effectively reduces | effectively reduce | effective | 1 nM | 1.8 to 2.1 L/kg | 3.33 to 5 mL/min/kg | 5.5 to 7.5 h | 8640 ng·h/mL
